In patent publication US8269000B2, “Substituted pyrimidine and triazine compounds” (Gruenenthal GmbH, priority 2008, dated 2012):

These molecules were tested against T1, rat B1R (Rattus norvegicus, UniProt P97583) (assay: FLIPR Ca2+ functional study on bradykinin receptor 1 (rB1R CHO K1 cells)). Conditions: % inhibition rat B1R at 10 μM.
T1 construct: expressed in transfected cells; host or cells: CHO K1 cells
T1 sequence (P97583 1-337): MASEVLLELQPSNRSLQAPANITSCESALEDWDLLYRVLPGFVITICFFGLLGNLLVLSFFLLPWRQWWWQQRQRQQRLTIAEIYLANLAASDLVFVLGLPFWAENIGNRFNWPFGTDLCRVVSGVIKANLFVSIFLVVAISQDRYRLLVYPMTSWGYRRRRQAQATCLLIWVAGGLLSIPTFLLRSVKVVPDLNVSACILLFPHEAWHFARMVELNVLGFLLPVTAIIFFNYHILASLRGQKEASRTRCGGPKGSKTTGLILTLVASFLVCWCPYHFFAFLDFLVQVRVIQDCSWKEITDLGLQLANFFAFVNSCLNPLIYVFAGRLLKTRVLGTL
Format: cell-based
Method in brief: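 Antagonism was calculated as % of maximal inhibition of the Ca2+ rise triggered by agonist at EC80 (Lys-Des-Arg9-bradykinin for hB1R, Des-Arg9-bradykinin for rB1R), added 10-20 min after test compound (10 μM or serial dilutions for IC50) to Fluo-4-loaded transfected CHO K1 cells on FLIPR. Duplicates or triplicates, ≥2 independent runs.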

Compound	% inh. (rat B1R) 10 μM [%]
COc1cc(C)c(S(=O)(=O)N2CCC[C@H]2COc2ccnc(N3CCC(CCN4CCCCC4)CC3)n2)c(C)c1 [H_CC-026, 4-[[(2S)-1-(4-methoxy-2,6-dimethylphenyl)sulfonyl-2-pyrrlidinyl]methoxy]-2-[4-[2-(1-piperidyl)ethyl]-1-piperidinyl]pyrimidine]	75

Same assay, conditions: CHO-K1, % inhibition rat B1R at 10 μM, read-out: % inh. (rat B1R) 10 μM

Compound	inhibition at 10 µM [%]
COc1cc(C)c(S(=O)(=O)N2CCCCC2COc2nccc(N3CCC(c4nc(-c5ccncc5)no4)CC3)n2)c(C)c1 (centres unmarked) [G_CC-103, 5-[1-[2-[[1-[(4-methoxy-2,6-dimethyl-phenyl)sulfonyl]-piperidin-2-yl]-methoxy]-pyrimidin-4-yl]-piperidin-4-yl]-3-pyridin-4-yl-[1,2,4]oxadiazole]	93
COc1cc(C)c(S(=O)(=O)N2CCC[C@H]2COc2nccc(N3CCC(N4CCN(C)CC4)CC3)n2)c(C)c1 [G_CC-017, 2-[[(2S)-1-(4-methoxy-2,6-dimethylphenyl)sulfonyl-2-pyrrolidinyl]methoxy]-4-[4-(4-methyl-1-piperazinyl)-1-piperidinyl]pyrimidine]	98
COc1cc(C)c(S(=O)(=O)N(C)C(COc2nccc(N3CCC(OCCN4CCCC4)(c4cccnc4)CC3)n2)c2ccccc2)c(C)c1 (centres unmarked) [G_CC-062, 4-methoxy-N,2,6-trimethyl-N-[1-phenyl-2-[[4-[4-(3-pyridyl)-4-(2-1-pyrrolidinylethoxy)-1-piperidinyl]-2-pyrimidinyl]oxy]ethyl]benzenesulfonamide]	78
COc1cc(C)c(S(=O)(=O)N2CCC[C@H]2COc2ccnc(N3CCC(N4CCN(C)CC4)CC3)n2)c(C)c1 [H_CC-010, 4-[[(2S)-1-(4-methoxy-2,6-dimethylphenyl)sulfonyl-2-pyrrolidinyl]methoxy]-2-[4-(4-methyl-1-piperazinyl)-1-piperidinyl]pyrimidine]	100
COc1cc(C)c(S(=O)(=O)N2CC(Oc3nccc(N(C)CCN4CCC(c5ccccc5)(N5CCCC5)CC4)n3)C2)c(C)c1 [G_CC-124, [2-[1-[(4-methoxy-2,6-dimethyl-phenyl)sulfonyl]-azetidin-3-yl]oxy-pyrimidin-4-yl]-methyl-[2-(4-phenyl-4-pyrrolidin-1-yl-piperidin-1-yl)-ethyl]amine]	57
COc1cc(C)c(S(=O)(=O)N2CCCCC2COc2nccc(N3CC4CC3CN4Cc3ccncc3)n2)c(C)c1 (centres unmarked) [G_CC-056, 5-[2-[[1-(4-methoxy-2,6-dimethylphenyl)sulfonyl-2-piperidinyl]methoxy]-4-pyrimidinyl]-2-(4-pyridylmethyl)-2,5-diazabicyclo[2.2.1]heptane]	98
COc1cc(C)c(S(=O)(=O)N2CCC[C@@H]2COc2nccc(N3CCCC3Cc3ccccn3)n2)c(C)c1 (stereo partly drawn) [G_CC-084, 2-[[(2R)-1-[(4-methoxy-2,6-dimethyl-phenyl)sulfonyl]-pyrrolidin-2-yl]-methoxy]-4-[2-(pyridin-2-yl-methyl)-pyrrolidin-1-yl]-pyrimidine]	83
COc1cc(C)c(S(=O)(=O)N2c3ccccc3C[C@H]2COc2ccnc(N(C)CCCN3CCC(c4ccccc4)(N(C)C)CC3)n2)c(C)c1 [H_CC-075, 3-(4-dimethylamino-4-phenyl-piperidin-1-yl)-propyl-[4-[[(2S)-1-[(4-methoxy-2,6-dimethyl-phenyl)sulfonyl]-2,3-dihydro-1H-indol-2-yl]-methoxy]-pyrimidin-2-yl]-methyl-amine]	75
COc1cc(C)c(S(=O)(=O)N2CCCCC2COc2nccc(N(C)CCN3CCC(c4ccccc4)(N4CCCC4)CC3)n2)c(C)c1 (centres unmarked) [G_CC-073, [2-[[1-[(4-methoxy-2,6-dimethyl-phenyl)sulfonyl]-piperidin-2-yl]-methoxy]-pyrimidin-4-yl]-methyl-[2-(4-phenyl-4-pyrrolidin-1-yl-piperidin-1-yl)-ethyl]-amine]	101
COc1cc(C)c(S(=O)(=O)N2CCCCC2COc2ccnc(N3CCC(CCN4CCCC4)CC3)n2)c(C)c1 (centres unmarked) [H_CC-002, 4-[[1-(4-methoxy-2,6-dimethylphenyl)sulfonyl-2-piperidinyl]methoxy]-2-[4-(2-1-pyrrolidinylethyl)-1-piperidinyl]pyrimidine]	77
